Source: US8802597B2, “Herbicidal pyrimidines” (E I du Pont de Nemours and Company, priority 2003, dated 2014)

Legend:
Test in all cases: Test C pre/postemergence
Format in all cases: in vivo
[1] = test system: yellow nutsedge (Cyperus esculentus); settings: for Plant response rating, Nutsedge, Yellow: Preemergence, scale 0 to 100, 0 no effect, 100 complete control
In short: (§1)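 Injury scored visually 12–14 days after application on 0–100 scale (100 = complete control), relative to controls. Compounds, formulated with surfactant in non-phytotoxic solvent, applied to soil at planting (pre) or to 1- to 4-leaf plants 2–18 cm tall (post) in greenhouse.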

kochia (Kochia scoparia) = settings: for Plant response rating, Kochia: Preemergence
In short: as §1

[2] = test system: velvetleaf (Abutilon theophrasti); settings: for Plant response rating, Velvetleaf: Preemergence, scale 0 to 100, 0 no effect, 100 complete control
In short: as §1

[3] = test system: common (oilseed) sunflower (Helianthus annuus); settings: Preemergence, scale 0 to 100, 0 no effect, 100 complete control
In short: as §1

corn (Zea mays) = settings: for Plant response rating (scale of 0 to 100), Corn: Postemergence; for Plant response rating, Corn: Preemergence
In short: as §1

[4] = test system: goosegrass (Eleusine indica); settings: for Plant response rating, Goosegrass: Preemergence
In short: as §1

[5] = test system: common ragweed (Ambrosia elatior); settings: for Plant response rating, Ragweed: Preemergence, scale 0 to 100, 0 no effect, 100 complete control
In short: as §1

[6] = test system: cocklebur (Xanthium strumarium); settings: for Plant response rating, Cocklebur: Preemergence
In short: as §1

[7] = test system: lambsquarters (Chenopodium album); settings: for Plant response rating, Lambsquarters: Preemergence
In short: as §1

[8] = test system: pigweed (Amaranthus retroflexus); settings: for Plant response rating, Pigweed: Preemergence, scale 0 to 100, 0 no effect, 100 complete control
In short: as §1

[9] = test system: Surinam grass (Brachiaria decumbens); settings: for Plant response rating, Surinam Grass: Preemergence, scale 0 to 100, 0 no effect, 100 complete control
In short: as §1

[10] = test system: crabgrass (Digitaria sanguinalis); settings: for Plant response rating, Crabgrass: Preemergence
In short: as §1

[11] = Postemergence, 125 g ai/ha, scale 0 to 100 (0 no effect, 100 complete control)
[12] = 16 g ai/ha, scale 0 to 100, 0 no effect, 100 complete control
[13] = 31 g ai/ha, scale 0 to 100, 0 no effect, 100 complete control
[14] = 62 g ai/ha, scale 0 to 100, 0 no effect, 100 complete control

Compound: Nc1nc(-c2ccc(Cl)cc2)nc(C(=O)[O-])c1Cl.[Na+] [Compound 117]
- Plant response rating (scale of 0 to 100), Nutsedge, Yellow ([1]; Postemergence, 16 g ai/ha): 5
- Plant response rating (scale of 0 to 100), Nutsedge, Yellow ([1]; Postemergence, 31 g ai/ha): 50
- Plant response rating (scale of 0 to 100), Nutsedge, Yellow ([1]; Postemergence, 62 g ai/ha): 50
- Nutsedge, Yellow plant response rating [1, 11]: 60
- Plant response rating, Nutsedge, Yellow ([1]; 16 g ai/ha): 0
- Plant response rating, Nutsedge, Yellow ([1]; 31 g ai/ha): 0
- Plant response rating, Nutsedge, Yellow ([1]; 62 g ai/ha): 50
- Plant response rating (scale of 0 to 100), Kochia (kochia (Kochia scoparia); Postemergence, 16 g ai/ha): 90
- Plant response rating (scale of 0 to 100), Kochia (kochia (Kochia scoparia); Postemergence, 31 g ai/ha): 90
- Plant response rating (scale of 0 to 100), Kochia (kochia (Kochia scoparia); Postemergence, 62 g ai/ha): 90
- Kochia plant response rating (kochia (Kochia scoparia); [11]): 90
- Plant response rating, Kochia (kochia (Kochia scoparia); [12]): 0
- Plant response rating, Kochia (kochia (Kochia scoparia); [13]): 5
- Plant response rating, Kochia (kochia (Kochia scoparia); [14]): 20
- Plant response rating, Kochia (kochia (Kochia scoparia); 125 g ai/ha, scale 0 to 100): 60
- Plant response rating (scale of 0 to 100), Velvetleaf ([2]; Postemergence, 16 g ai/ha): 60
- Plant response rating (scale of 0 to 100), Velvetleaf ([2]; Postemergence, 31 g ai/ha): 70
- Plant response rating (scale of 0 to 100), Velvetleaf ([2]; Postemergence, 62 g ai/ha): 95
- Velvetleaf plant response rating [2, 11]: 95
- Plant response rating, Velvetleaf ([2]; 16 g ai/ha): 0
- Plant response rating, Velvetleaf ([2]; 31 g ai/ha): 50
- Plant response rating, Velvetleaf ([2]; 62 g ai/ha): 65
- Plant response rating, Sunflower ([3]; 16 g ai/ha): 0
- Plant response rating, Sunflower ([3]; 31 g ai/ha): 50
- Plant response rating, Sunflower ([3]; 62 g ai/ha): 90
- Plant response rating (scale of 0 to 100), Corn (corn (Zea mays); 16 g ai/ha): 30
- Plant response rating (scale of 0 to 100), Corn (corn (Zea mays); 31 g ai/ha): 30
- Plant response rating, Corn (corn (Zea mays); [12]): 0
- Plant response rating, Corn (corn (Zea mays); [13]): 5
- Plant response rating, Corn (corn (Zea mays); [14]): 20
- Plant response rating, Corn (corn (Zea mays); 125 g ai/ha, scale 0 to 100): 25
- Plant response rating (scale of 0 to 100), Goosegrass ([4]; Postemergence, 16 g ai/ha): 40
- Plant response rating (scale of 0 to 100), Goosegrass ([4]; Postemergence, 31 g ai/ha): 40
- Plant response rating (scale of 0 to 100), Goosegrass ([4]; Postemergence, 62 g ai/ha): 75
- Goosegrass plant response rating [4, 11]: 80
- Plant response rating, Goosegrass [4, 12]: 0
- Plant response rating, Goosegrass [4, 13]: 0
- Plant response rating, Goosegrass [4, 14]: 0
- Plant response rating, Goosegrass ([4]; 125 g ai/ha, scale 0 to 100): 30
- Plant response rating (scale of 0 to 100), Ragweed ([5]; Postemergence, 16 g ai/ha): 95
- Plant response rating (scale of 0 to 100), Ragweed ([5]; Postemergence, 31 g ai/ha): 95
- Plant response rating (scale of 0 to 100), Ragweed ([5]; Postemergence, 62 g ai/ha): 100
- Ragweed plant response rating [5, 11]: 100
- Plant response rating, Ragweed ([5]; 16 g ai/ha): 60
- Plant response rating, Ragweed ([5]; 31 g ai/ha): 60
- Plant response rating, Ragweed ([5]; 62 g ai/ha): 90
- Plant response rating (scale of 0 to 100), Cocklebur ([6]; Postemergence, 16 g ai/ha): 90
- Plant response rating (scale of 0 to 100), Cocklebur ([6]; Postemergence, 62 g ai/ha): 90
- Cocklebur plant response rating [6, 11]: 90
- Plant response rating, Cocklebur [6, 12]: 0
- Plant response rating, Cocklebur [6, 13]: 0
- Plant response rating, Cocklebur [6, 14]: 5
- Plant response rating, Cocklebur ([6]; 125 g ai/ha, scale 0 to 100): 90
- Plant response rating (scale of 0 to 100), Lambsquarters ([7]; Postemergence, 16 g ai/ha): 95
- Plant response rating (scale of 0 to 100), Lambsquarters ([7]; Postemergence, 31 g ai/ha): 95
- Plant response rating (scale of 0 to 100), Lambsquarters ([7]; Postemergence, 62 g ai/ha): 95
- Lambsquarters plant response rating [7, 11]: 95
- Plant response rating, Lambsquarters [7, 12]: 20
- Plant response rating, Lambsquarters [7, 13]: 100
- Plant response rating, Lambsquarters [7, 14]: 100
- Plant response rating, Lambsquarters ([7]; 125 g ai/ha, scale 0 to 100): 100
- Plant response rating (scale of 0 to 100), Pigweed ([8]; Postemergence, 16 g ai/ha): 90
- Plant response rating (scale of 0 to 100), Pigweed ([8]; Postemergence, 31 g ai/ha): 95
- Plant response rating (scale of 0 to 100), Pigweed ([8]; Postemergence, 62 g ai/ha): 95
- Pigweed plant response rating [8, 11]: 95
- Plant response rating, Pigweed ([8]; 16 g ai/ha): 50
- Plant response rating, Pigweed ([8]; 31 g ai/ha): 80
- Plant response rating, Pigweed ([8]; 62 g ai/ha): 90
- Plant response rating (scale of 0 to 100), Surinam Grass ([9]; Postemergence, 16 g ai/ha): 45
- Plant response rating (scale of 0 to 100), Surinam Grass ([9]; Postemergence, 31 g ai/ha): 50
- Plant response rating (scale of 0 to 100), Surinam Grass ([9]; Postemergence, 62 g ai/ha): 80
- Surinam Grass plant response rating [9, 11]: 80
- Plant response rating, Surinam Grass ([9]; 16 g ai/ha): 40
- Plant response rating, Surinam Grass ([9]; 31 g ai/ha): 40
- Plant response rating, Surinam Grass ([9]; 62 g ai/ha): 50
- Plant response rating (scale of 0 to 100), Crabgrass ([10]; Postemergence, 16 g ai/ha): 85
- Plant response rating (scale of 0 to 100), Crabgrass ([10]; Postemergence, 31 g ai/ha): 90
- Plant response rating (scale of 0 to 100), Crabgrass ([10]; Postemergence, 62 g ai/ha): 90
- Crabgrass plant response rating [10, 11]: 90
- Plant response rating, Crabgrass [10, 12]: 0
- Plant response rating, Crabgrass [10, 13]: 0
- Plant response rating, Crabgrass [10, 14]: 0
- Plant response rating, Crabgrass ([10]; 125 g ai/ha, scale 0 to 100): 60
